US10738035B2, “Hepatitis B antiviral agents” (Enanta Pharmaceuticals, Inc., priority 2015, dated 2020)

Key:
[1] = system: hepatitis B virus (HBV); experiment: HepAD38 antiviral assay (viral product accumulation, EC50); conditions: HePAD38, 120 h, read-out: HepAD38 EC50
Method: (§1) Briefly, cells are passaged upon attaining confluency in DMEM/F12 media in the presence of 10% FBS, Penn/Strep, 250 μg/mL G418, and 1 μg/ml tetracycline. Novel compounds are screened by first washing cells three times with PBS to remove tetracycline, and plating in 96 well plates at 35,000 cells/well. Compounds dissolved in DMSO are then diluted 1:200 into wells containing cells. Five days after compound addition, material is harvested for analysis.
On harvest day, virion DNA is obtained by lysing with Sidestep Lysis and Stabilization Buffer and then quantified via quantitative real time PCR. Commercially available ELISA kits are used to quantitate the viral proteins HBsAg (Alpco) or HbeAg (US Biological) by following the manufacturer's recommended protocol after diluting samples to match the linear range of their respective assays.

[2] = Compound toxicity, ATPLite (CC50); conditions: human, HepAD38 cells
Method: as §1
Compound toxicity is evaluated by seeding cells at 15,000 cells/well and treating with compound as described above.

| SMILES | EC50 [1] [µM] | CC50 at 3 days [2] [µM] |
| --- | --- | --- |
| O=S(=O)(c1c(Cl)ccc2c(Nc3cc(F)c(F)c(F)c3)n[nH]c12)N1CCC(O)CC1 [Example 1] | > 10 | > 30 |
| Cn1nc(NC(=O)Nc2cc(F)c(F)c(F)c2)cc1S(=O)(=O)N1CCC(O)CC1 [Example 2] | 1 to 10 | > 30 |
| Cn1nc(NC(=O)N2CCC(O)CC2)cc1C(=O)Nc1cc(F)c(F)c(F)c1 [Example 3] | < 1 | > 30 |
| O=S(=O)(c1cc2oc(Nc3cc(F)c(F)c(F)c3)nc2cc1Cl)N1CCC(O)CC1 [Example 4] | 1 to 10 | < 10 |
| Cn1nc(NS(=O)(=O)C2CCC(O)CC2)cc1C(=O)Nc1cc(F)c(F)c(F)c1 (stereo not drawn) [Example 5] | < 1 | > 30 |
| Cn1c(NC(=O)N2CCC(O)CC2)cnc1C(=O)Nc1cc(F)c(F)c(F)c1 [Example 6] | > 10 | > 10 |
| O=C(Nc1cc(F)c(F)c(F)c1)c1ccc(Cl)c(NC(=O)N2CCC(O)CC2)c1 [Example 7] | 1 to 10 | > 30 |
| Cn1nc(NC(=O)N2CCC(O)CC2)cc1-c1ncc(-c2cc(F)c(F)c(F)c2)[nH]1 [Example 8] | > 10 | > 10 |
| O=C(Nc1cc(F)c(F)c(F)c1)c1cc(NC(=O)N2CCC(O)CC2)no1 [Example 9] | > 10 | < 10 |
| Cn1cc(NC(=O)N2CCC(O)CC2)nc1C(=O)Nc1cc(F)c(F)c(F)c1 [Example 10] | > 10 | > 30 |
| Cn1nc(NC(=O)N2CCC(O)CC2)c(Cl)c1C(=O)Nc1cc(F)c(F)c(F)c1 [Example 11] | 1 to 10 | > 30 |
| Cn1nc(NS(=O)(=O)N2CCC(OCc3ccccc3)CC2)cc1C(=O)Nc1cc(F)c(F)c(F)c1 [Example 12] | 1 to 10 | 10 to 30 |
| Cn1nc(C(=O)Nc2cc(F)c(F)c(F)c2)cc1NC(=O)N1CCC(O)CC1 [Example 13] | > 10 | > 10 |
| Cn1nc(NC(=O)C2CCC(O)CC2)cc1C(=O)Nc1cc(F)c(F)c(F)c1 (stereo not drawn) [Example 14] | 1 to 10 | > 30 |
| Cn1nc(NC(=O)OCCO)cc1C(=O)Nc1cc(F)c(F)c(F)c1 [Example 15] | < 1 | > 30 |
| Cn1nc(NC(=O)N2CCCCC2)cc1C(=O)Nc1cc(F)c(F)c(F)c1 [Example 16] | 1 to 10 | < 10 |
| Cn1nc(NC(=O)N2CCC(F)CC2)cc1C(=O)Nc1cc(F)c(F)c(F)c1 [Example 17] | 1 to 10 | < 10 |
| Cn1nc(NC(=O)N2CCC(F)(F)CC2)cc1C(=O)Nc1cc(F)c(F)c(F)c1 [Example 18] | 1 to 10 | > 30 |
| Cn1nc(NC(=O)N2CCC(C)(O)CC2)cc1C(=O)Nc1cc(F)c(F)c(F)c1 [Example 19] | 1 to 10 | > 30 |
| Cn1nc(NC(=O)N2CCOCC2)cc1C(=O)Nc1cc(F)c(F)c(F)c1 [Example 20] | 1 to 10 | > 30 |
| CN(CCO)C(=O)Nc1cc(C(=O)Nc2cc(F)c(F)c(F)c2)n(C)n1 [Example 21] | 1 to 10 | > 30 |
| CN(C(=O)Nc1cc(C(=O)Nc2cc(F)c(F)c(F)c2)n(C)n1)C1CC1 [Example 22] | > 10 | > 30 |
| CN(Cc1ccccc1)C(=O)Nc1cc(C(=O)Nc2cc(F)c(F)c(F)c2)n(C)n1 [Example 23] | 1 to 10 | < 10 |

| SMILES | EC50 [1] [µM] | CC50 at 3 days [2] [µM] |
| --- | --- | --- |
| COCCNC(=O)Nc1cc(C(=O)Nc2cc(F)c(F)c(F)c2)n(C)n1 [Example 24] | 1 to 10 | > 30 |
| CN(C)CCNC(=O)Nc1cc(C(=O)Nc2cc(F)c(F)c(F)c2)n(C)n1 [Example 25] | > 10 | > 30 |
| Cn1nc(NC(=O)NCC2(C)CC2)cc1C(=O)Nc1cc(F)c(F)c(F)c1 [Example 26] | < 1 | > 30 |
| Cn1nc(NC(=O)N(CCO)CCO)cc1C(=O)Nc1cc(F)c(F)c(F)c1 [Example 27] | > 10 | > 30 |
| CN(C(=O)Nc1cc(C(=O)Nc2cc(F)c(F)c(F)c2)n(C)n1)C1CCCCC1 [Example 28] | < 1 | > 30 |
| Cn1nc(NC(=O)N2CCC(O)C2)cc1C(=O)Nc1cc(F)c(F)c(F)c1 (stereo not drawn) [Example 29] | 1 to 10 | < 10 |
| CCCN(C)C(=O)Nc1cc(C(=O)Nc2cc(F)c(F)c(F)c2)n(C)n1 [Example 30] | < 1 | > 30 |
| CCCCNC(=O)Nc1cc(C(=O)Nc2cc(F)c(F)c(F)c2)n(C)n1 [Example 31] | 1 to 10 | > 30 |
| Cn1nc(NC(=O)NCCO)cc1C(=O)Nc1cc(F)c(F)c(F)c1 [Example 32] | 1 to 10 | 10 to 30 |
| C=CCn1nc(NC(=O)N2CCC(O)CC2)cc1C(=O)Nc1cc(F)c(F)c(F)c1 [Example 33] | 1 to 10 | > 30 |
| Cn1nc(NC(=O)N2CCC(O)CC2)cc1C(=O)Nc1ccc(F)cc1 [Example 34] | 1 to 10 | > 30 |
| Cn1nc(NC(=O)N2CCC(O)CC2)cc1C(=O)Nc1ccc(O)c(F)c1 [Example 35] | > 10 | > 30 |
| Cn1nc(NC(=O)N2CCC(O)CC2)cc1C(=O)Nc1cc(F)c(Cl)c(F)c1 [Example 36] | > 10 | > 30 |
| Cn1nc(NC(=O)N2CCC(O)CC2)cc1C(=O)Nc1cccnc1 [Example 37] | > 10 | > 30 |
| Cn1nc(NC(=O)N2CC(O)C2)cc1C(=O)Nc1cc(F)c(F)c(F)c1 [Example 38] | < 1 | 10 to 30 |
| CN(CCCO)C(=O)Nc1cc(C(=O)Nc2cc(F)c(F)c(F)c2)n(C)n1 [Example 39] | 1 to 10 | > 30 |
| CCN(C)C(=O)Nc1cc(C(=O)Nc2cc(F)c(F)c(F)c2)n(C)n1 [Example 40] | 1 to 10 | < 10 |
| CC(C)CN(C)C(=O)Nc1cc(C(=O)Nc2cc(F)c(F)c(F)c2)n(C)n1 [Example 41] | < 1 | > 30 |
| Cn1nc(NC(=O)NCCS(C)(=O)=O)cc1C(=O)Nc1cc(F)c(F)c(F)c1 [Example 42] | 1 to 10 | > 30 |
| Cn1nc(NC(=O)N2CCC(O)CC2)cc1C(=O)Nc1cccc(F)c1 [Example 43] | 1 to 10 | > 30 |
| Cn1nc(NC(=O)N2CCC(O)CC2)cc1C(=O)Nc1ccc(F)c(F)c1 [Example 44] | 1 to 10 | > 30 |
| Cn1nc(NC(=O)N2CCC(O)CC2)cc1C(=O)Nc1cccc(F)c1F [Example 45] | 1 to 10 | > 30 |
| Cn1nc(NC(=O)N2CCC(O)CC2)cc1C(=O)Nc1cc(F)cc(F)c1 [Example 46] | > 10 | 10 to 30 |

| SMILES | EC50 [1] [µM] | CC50 at 3 days [2] [µM] |
| --- | --- | --- |
| Cn1nc(NC(=O)N2CCC(O)CC2)cc1C(=O)Nc1ccc(F)cc1F [Example 47] | > 10 | > 30 |
| Cn1nc(NC(=O)N2CCC(O)CC2)cc1C(=O)Nc1ccc(F)c(Cl)c1 [Example 48] | 1 to 10 | < 10 |
| Cn1nc(NC(=O)N2CCC(O)CC2)cc1C(=O)Nc1ccc(Cl)c(F)c1 [Example 49] | 1 to 10 | > 30 |
| Cn1nc(NC(=O)N2CCC(O)CC2)cc1C(=O)Nc1ccc(F)c(O)c1 [Example 50] | > 10 | > 30 |
| Cn1nc(NC(=O)N2CCC(O)CC2)cc1C(=O)Nc1ccccc1 [Example 51] | > 10 | > 30 |
| Cn1nc(NC(=O)N2CCC(O)CC2)cc1C(=O)Nc1ccc(F)c(C(F)(F)F)c1 [Example 52] | 1 to 10 | > 30 |
| Cn1nc(NC(=O)N2CCC(O)CC2)cc1C(=O)Nc1ccc(F)c(C#N)c1 [Example 53] | 1 to 10 | > 30 |
| Cc1cc(NC(=O)c2cc(NC(=O)N3CCC(O)CC3)nn2C)ccc1F [Example 54] | < 1 | < 10 |
| COc1cc(NC(=O)c2cc(NC(=O)N3CCC(O)CC3)nn2C)ccc1F [Example 55] | > 10 | > 30 |
| Cn1nc(NC(=O)N2CCC(O)CC2)cc1C(=O)Nc1ccncc1 [Example 56] | > 10 | > 30 |
| CC(C)N(C)C(=O)Nc1cc(C(=O)Nc2cc(F)c(F)c(F)c2)n(C)n1 [Example 57] | 1 to 10 | < 10 |
| CN(C(=O)N1CCC(O)CC1)c1cc(C(=O)Nc2cc(F)c(F)c(F)c2)n(C)n1 [Example 58] | > 10 | > 30 |
| Cn1nc(NC(=O)N2CCC(O)CC2)cc1C(=O)Nc1ccc(F)cc1Cl [Example 59] | > 10 | > 30 |
| Cn1nc(NC(=O)N2CCC(O)CC2)cc1C(=O)Nc1cc(F)c(F)c(Cl)c1 [Example 60] | 1 to 10 | < 10 |
| Cn1nc(NC(=O)N2CCC(O)CC2)cc1C(=O)Nc1ccccn1 [Example 61] | > 10 | > 30 |
| Cn1nc(NC(=O)N2CCC(O)CC2)cc1C(=O)Nc1ccc(O)cc1 [Example 62] | > 10 | > 30 |
| Cn1nc(NC(=O)N2CCC(O)CC2)cc1C(=O)Nc1cccc(O)c1 [Example 63] | > 10 | > 30 |
| COc1ccc(NC(=O)c2cc(NC(=O)N3CCC(O)CC3)nn2C)cc1 [Example 64] | > 10 | > 30 |
| COc1cccc(NC(=O)c2cc(NC(=O)N3CCC(O)CC3)nn2C)c1 [Example 65] | > 10 | > 30 |
| CCc1ccc(NC(=O)c2cc(NC(=O)N3CCC(O)CC3)nn2C)cc1 [Example 66] | > 10 | > 30 |
| CC(C)c1ccc(NC(=O)c2cc(NC(=O)N3CCC(O)CC3)nn2C)cc1 [Example 67] | > 10 | > 30 |
| CC(C)c1cccc(NC(=O)c2cc(NC(=O)N3CCC(O)CC3)nn2C)c1 [Example 68] | > 10 | > 10 |
| Cn1nc(NC(=O)N2CCC(O)CC2)cc1C(=O)Nc1ccc(C(C)(C)C)cc1 [Example 69] | > 10 | > 30 |
